{"source": "patent US12178840B2", "about": "“Method and compositions comprising a CT20 peptide” (UNIVERSITY OF CENTRAL FLORIDA RESEARCH FOUNDATION, INC., priority 2014, dated 2024)", "key": {"MDA-MB-436 cells": {"tested_on": "MDA-MB-436 cells", "type": "cell-based, human", "details": "75 ug/mL, time course", "method": "(§1) Measurement of cell viability: Cells at 60% confluency were treated with CT20p at a dose of 75 ug/mL for varying lengths of time. Following treatment, cells were collected and stained with Sytox AADvanced and F2N12S Violet Ratiometric Apoptosis kit (Invitrogen). Data was acquired by flow cytometry on a FACS Canto (BD Biosciences), and analyzed with FCSExpress software (DeNovo).\n(§2) The cytotoxicity of CT20p to the cell lines was also assessed. To do this, cells were treated with the effective dose of CT20p in a time course-experiment, and membrane symmetry and permeability were examined by flow cytometry (FIG. 5B). […] BT-549 cells, on the other hand, were resistant to the effects of the peptide."}, "[1]": {"target": "T1, Purified recombinant CCTβ (Homo sapiens, UniProt P78371)", "T1 construct": "purchased MyBioSource; host or cells: E. coli", "T1 sequence (P78371 1-535)": "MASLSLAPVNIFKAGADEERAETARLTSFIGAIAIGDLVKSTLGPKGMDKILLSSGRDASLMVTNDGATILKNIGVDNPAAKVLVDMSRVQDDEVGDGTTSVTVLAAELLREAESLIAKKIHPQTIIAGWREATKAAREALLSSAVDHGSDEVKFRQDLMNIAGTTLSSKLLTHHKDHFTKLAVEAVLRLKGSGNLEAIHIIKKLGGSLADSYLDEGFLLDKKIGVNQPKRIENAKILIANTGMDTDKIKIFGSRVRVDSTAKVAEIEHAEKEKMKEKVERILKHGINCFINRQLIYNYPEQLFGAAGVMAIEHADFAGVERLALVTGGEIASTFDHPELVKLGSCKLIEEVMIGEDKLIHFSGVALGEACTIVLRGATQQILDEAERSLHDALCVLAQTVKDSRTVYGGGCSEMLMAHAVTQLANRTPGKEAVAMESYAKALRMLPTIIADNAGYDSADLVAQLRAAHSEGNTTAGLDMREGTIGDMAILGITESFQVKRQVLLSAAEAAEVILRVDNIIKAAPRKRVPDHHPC", "assay": "Pull-down with purified recombinant CCTβ", "type": "binding", "details": "0.1 nmol CCTβ, CT20p-Biotin 0.1 to 4 nmol", "method": "FIG. 9 is representative data showing that CT20p binds directly to CCTβ. Purified recombinant CCTβ was tested for interaction with CT20p as described in Materials and Methods.\nPull down experiments: Lysate pull-downs were performed with 200 ug cell lysate, obtained by douncing as described above. Lysates were pre-cleared with streptavidin-agarose beads (Pierce), then incubated with […] of CT20-Biotin or biotin for 3 hours at room temperature, followed by overnight incubation at 4° C. with streptavidin-agarose beads. Beads were washed thoroughly with wash buffer (25 mM Tris, 150 mM NaCl, 0.1% NP40, pH7.4), then heated in 4× loading buffer (Invitrogen) for analysis by SDS-PAGE. Mass spectrometric analysis was performed by Moffit Cancer Center (Tampa, FL). Mass spectrometry results presented are of proteins with at least two unique peptides identified, and that were not recovered with biotin-only pull down. In-cell pull downs were performed by first delivering CT20p-Biotin encapsulated in nanoparticles to viable cells at a dose of 75 μg/mL for varying lengths of time. Following treatment, cells were collected and lysed by douncing. 200 ug of cell lysate were then incubated with streptavidin-agarose beads overnight at 4° C., and pull-down was completed as described above. […]"}, "BT-549 cells": {"tested_on": "BT-549 cells", "assay": "Cell viability by flow cytometry (Sytox AADvanced / F2N12S), time course", "type": "cell-based, human", "details": "75 ug/mL", "method": "as §1, §2"}, "MDA-MB-231 cells": {"tested_on": "MDA-MB-231 cells", "assay": "Cell viability by flow cytometry (Sytox AADvanced / F2N12S), time course", "type": "cell-based, human", "details": "75 ug/mL", "method": "as §1, §2"}, "[2]": {"tested_on": "cells isolated from primary breast tumors", "assay": "Lethality in cells isolated from primary breast tumors", "type": "cell-based, human", "details": "CT20 peptide in HBPE-NPs", "description": "40× magnification. CCTβ was detected in invasive breast cancer.\nThe lethality of CT20 was also examined in cells isolated from primary breast tumors and paired normal tissue. […] To this end, the levels of CCTβ were examined in a pilot tissue array of breast cancer tissue cores by immunohistochemistry (IHC) and detected CCTβ in invasive breast cancer (FIG. 14B)."}}, "note": "Residues, ends and D or L forms follow the SMILES beside them."}
{"compound": "CC[C@H](C)[C@H](NC(=O)[C@@H](NC(=O)[C@H](CC(C)C)NC(=O)[C@H](CO)NC(=O)[C@H](C)NC(=O)[C@@H](NC(=O)[C@H](CC(C)C)NC(=O)[C@@H](NC(=O)CNC(=O)[C@H](C)NC(=O)[C@@H](NC(=O)[C@H](Cc1ccccc1)NC(=O)[C@@H](NC(=O)[C@@H](NC(=O)[C@@H](NC(C)=O)C(C)C)[C@@H](C)O)[C@@H](C)CC)C(C)C)C(C)C)[C@@H](C)O)[C@@H](C)O)C(=O)N[C@@H](Cc1c[nH]c2ccccc12)C(=O)N[C@@H](CCCCN)C(=O)N[C@@H](CCCCN)C(=O)N[C@@H](CCSC)C(=O)NCC(N)=O", "note": "[CT20] (Ac-VTIFVAGVLTASLTIWKKMG-NH2)", "values": [{"measurement": "Earliest time at which characteristics of cell death were displayed", "setting": "MDA-MB-436 cells", "value": 6, "unit": "h"}, {"measurement": "Direct interaction with CCTβ", "setting": "[1]", "value": "does interact directly with CCTβ"}, {"measurement": "Sensitivity to CT20p cytotoxicity", "setting": "BT-549 cells", "value": "resistant"}, {"measurement": "Sensitivity to CT20p cytotoxicity", "setting": "MDA-MB-231 cells", "value": "highly susceptible"}, {"measurement": "Lethality", "setting": "[2]", "value": "killed the tumor cells"}]}
